Key:
[1] = system: bladder cancer cells (urothelial CSCs); experiment: Sphere formation assay; type: cell-based, human
Method: Sphere formation was induced by culturing cells (2×10^4/well) in […] F12 50/50 Mix (Mediatech) supplemented with B-27 (Life Technologies), 20 ng/mL FGF-basic (Peprotech), 20 ng/mL EGF (Peprotech). Cell culture was performed in ultra-low attachment 6 well plates (Corning, Lowell, USA) for 10 days. The medium was replaced every other day. Sphere formation was evaluated using the inverted phase-contrast microscope, and single sphere with a diameter larger than 100 gm was counted using NIS-Elements Microscope Imaging Software. To redifferentiate spheres, spheres were plated in standard growth medium with 10% FBS in dishes supporting cell attachment, and incubated for 7 days. For self-renewal assay, primary spheres were collected by gentle centrifugation (5 min at 400×g), dissociated with Stempro Accutase Cell Dissociation Reagent (Life Technologies), and mechanically disrupted with a pipette. The cell suspension was sieved through 40 μm cell strainer cap filter to achieve a single-cell suspension, and then equal numbers of alive cells were plated in ultralow attachment plates to generate the second spheres. Again, spheres were counted on day 14 and digested to generate the third Spheres. All the experiments were performed in triplicate and repeated at least three times.

SOX2 = experiment: Western blotting / flow cytometry of SOX2 expression in bladder cancer cells; type: cell-based, human
Method: (§1) Whole cell lysates were extracted using RIPA buffer (Thermo Scientific) supplemented with 10 μL/mL Halt™ Protease Inhibitor Cocktail Kit (Life Technologies) and 30 μL/mL Halt™ Phosphatase Inhibitor Cocktail Kit (Life Technologies). The protein concentrations were determined using a Pierce™ BCA Protein Assay Kit (Life Technologies), and the protein were separated on. NuPAGE 4-12% Bis-Tris Gel (Life Technologies) according to the manufacturer's protocol. COX2 (D5H5), NANOG (D73G4), OCT4 (D7O5Z), CD133 (A3G6K), Snail (C15D3), ZEBI (D80D3), Vimentin (D21H3), CDH2 (D4R1H), CDH1 (24E10), p-EGFR (D7A5), EGFR (D38B1), p-AKT (D9E), AKT (cat #, 9272), p-ERK (D13.14.4E), ERK (137F5), p-YAP1 (D9W2I), p-Src (cat #, 2101), Src (36D10), DNMT1 (D63A6), DNMT3A (D23G1), and DNMT3B (D7070) antibodies were obtained from Cell Signaling Technology (Danvers, Mass., USA), except for SOX2 (EPR3131; Abeam, Cambridge, USA), YAP1 (ab52771; Abeam), CD24 (cat #, AF5247-SP; R&D Systems, Minneapolis USA) and β-actin (A2228; Sigma-Aldrich). Secondary horseradish peroxidase (HRP)-conjugated antibodies were obtained from Cell Signaling Technology, and chemiluminescent detection of HRP-labeled antibodies was performed using Amersham ECL Prime Western Blotting Detection Reagent (GE Healthcare, Piscataway, USA). As loading control, β-actin was used.
For extracellular staining, cells (1×10^6/100 μL stain buffer) were incubated with PE-Vio770-conjugated anti-human CD133 (293C3; Miltenyi Biotec, Auburn, USA) or PE-conjugated anti-human CD24 antibody (cat #, 560991; BD Biosciences) for 30 min at 4° C. in dark. PE-Vio770-conjugated anti-IgG1κ Isotype (cat #, 130-098-563; Miltenyi Biotec) and PE-conjugated IgG2a, κ Isotype (cat #, 555574; BD Biosciences) were used as control for CD133 and CD24 staining, respectively. Staining for intracellular SOX2 was carried out using the BD Cytofix/Cytopem Fixation/Permeabilization Kit (BD Biosciences) according to manufacturer's protocol. The cells were incubated with Alexa Fluor 647-conjugated anti-SOX2 antibody (cat #, 560302; BD Biosciences) for 40 min at 4° C. in dark. Alexa Fluor 647-conjugated anti-IgG2a, κ Isotype (cat #, 558053; BD Biosciences) was used as control. Data were acquired on a BD FACSCalibur flow cytometer (BD Biosciences) using BD CellQuest Pro software (BD Biosciences) and analyzed with FlowJo software v10.1 (Tree Star, Ashland, USA).

YAP1 = experiment: Western blotting of YAP1 expression in bladder cancer cells; type: cell-based, human
Method: as §1

[2] = system: xenograft tumors that acquired resistance to erlotinib (5637 cells); experiment: In vivo therapeutic efficacy in tumors with acquired resistance to erlotinib; parameters: species or system mice; conditions: western blotting (FIG. 7G)
Method: For therapeutic efficacy, mice were randomly assigned into experimental groups (five mice per group) when tumors reached a volume of […]. For celecoxib and/or VP treatment, celecoxib (5 mg/kg) was administered via intraperitoneal (i.p.) injection once a day (17), and VP (50 mg/kg) was administered via i.p. every other day (18). EP4 antagonist ONO-AE3-208 (10 mg/kg) was administered via i.p. once a day (19). Control was applied with same volume (10 μL per injection) of 10% dimethyl sulphoxide in 1% TWEEN 80 (Sigma-Aldrich). For GEM and CDDP (GC) treatment (i.p.), CDDP (6 mg/kg) was only applied after the first GEM (60 mg/kg) treatment on day 2, followed by three consecutive treatments of GEM on day 5, 8 and 11 (17). The next cycle was started on day 18, and the treatment was continued until tumor reached 2 cm in diameter. For erlotinib treatment, the mice were treated once a day, 6 days per week, by oral gavage with erlotinib (100 mg/kg) or control (PBS containing 0.5% methyl cellulose (Sigma-Aldrich) and 0.1% TWEEN 80) (20). Tumor size was measured at least every three days. Therapeutic efficacy was assessed using percentage change after treatment related to tumor size before treatment. […]

[3] = basal-type cells, 1 μM erlotinib

In the case of `C#Cc1cccc(Nc2ncnc3cc(OCCOC)c(OCCOC)cc23)c1` [erlotinib, Erlotinib], the number of spheres ([1]; basal-type cells, 1 μM erlotinib for 72 hours) was “enriched number of spheres”, the “level of SOX2 expression over time” value (SOX2; [3]) was “decreased at 1 hour after treatment with erlotinib and then gradually increased” and the YAP1 expression (YAP1; [3]) was “continuously decreased YAP1 expression”. For the same compound, the “levels of YAP1 expression” value (YAP1; non-basal-type cells, erlotinib) was “did not affect” and the “EGFR-MAPK signaling in xenograft tumors” value [2] was “remained suppressed”.

`Cc1ccc(-c2cc(C(F)(F)F)nn2-c2ccc(S(N)(=O)=O)cc2)cc1` [celecoxib, Celecoxib] was tested, and the “sphere-forming ability / sphere formation” value ([1]; COX2 inhibitor or EP4 antagonist alone) was “repressed”, the erlotinib-increased sphere formation ([1]; basal-type cells, COX2 inhibitor added to erlotinib (10 μM celecoxib, 72 hours)) was “impaired” and the SOX2 expression (SOX2; COX2 inhibitor or EP4 antagonist alone (FIG. 2A-B, S7)) was “SOX2 downregulation”. The “erlotinib-increased SOX2 expression” value (SOX2; basal-type cells, COX2 inhibitor added to erlotinib) was “impaired” and the “induction of YAP1 expression” value (YAP1; COX2 inhibitor added to erlotinib) was “no longer able to induce YAP1 expression”.

From patent US20220184037A1, “PHARMACEUTICAL AGENTS TARGETING CANCER STEM CELLS” (THE JOHNS HOPKINS UNIVERSITY, priority 2020, published 2022)
